Here are results for five compounds from US20240270809A1, “ORAL GLP RECEPTOR AGONISTS” (priority 2020, published 2024).

The target in one series is T1, human GLP2 receptor (Homo sapiens, UniProt O95838).
T1 construct: expressed in transfected cells; host or cells: HEK cells, BacMam virus transduction
T1 sequence (O95838 1-553): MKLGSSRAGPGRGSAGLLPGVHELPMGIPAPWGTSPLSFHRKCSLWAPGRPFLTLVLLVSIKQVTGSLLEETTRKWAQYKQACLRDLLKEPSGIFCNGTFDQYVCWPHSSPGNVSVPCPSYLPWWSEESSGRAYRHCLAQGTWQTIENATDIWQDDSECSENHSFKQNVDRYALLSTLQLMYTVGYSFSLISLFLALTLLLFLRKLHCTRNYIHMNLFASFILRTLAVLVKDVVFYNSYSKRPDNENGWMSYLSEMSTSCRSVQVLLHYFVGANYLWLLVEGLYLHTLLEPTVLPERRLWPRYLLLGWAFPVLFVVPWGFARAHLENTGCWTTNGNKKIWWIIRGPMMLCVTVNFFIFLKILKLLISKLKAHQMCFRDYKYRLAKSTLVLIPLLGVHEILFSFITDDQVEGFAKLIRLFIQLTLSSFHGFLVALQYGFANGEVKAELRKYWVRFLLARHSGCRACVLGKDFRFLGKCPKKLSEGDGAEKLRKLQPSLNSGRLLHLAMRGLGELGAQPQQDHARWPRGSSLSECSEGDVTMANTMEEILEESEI
Kind of series: cAMP accumulation assay, functional agonism of human GLP2 receptor. Format: cell-based. Particulars: HEK cells infected with human GLP2 receptor BacMam virus, HTRF cAMP; for Emax: HEK293, read-out: Human GLP-2R agonist cAMP Emax; for EC50: read-out: Human GLP-2R agonist cAMP pEC50 (converted). The gist of the method:
(§1)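 Frozen HEK cells, previously BacMam-infected 24 h to express either receptor, are stimulated for 45 min at 37° C in IBMX-containing (0.5 mM) HBSS. The reaction is then terminated with HTRF reagents in lysis buffer.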
(cAMP levels reflect the balance of adenylyl cyclase and phosphodiesterase activity.)

A further series has as its target T2, human GLP1 receptor (Homo sapiens, UniProt P43220).
T2 construct: expressed in transfected cells; host or cells: HEK cells, BacMam virus transduction
The series can be described thus: cAMP accumulation assay, functional agonism of human GLP1 receptor. Type of series: cell-based. Particulars: HEK cells infected with human GLP1 receptor BacMam virus, HTRF cAMP; for Emax: HEK293, read-out: Human GLP-1R agonist cAMP Emax; for EC50: read-out: Human GLP-1R agonist cAMP pEC50 (converted). The gist of the method: as §1

The nature of series [1]: Stability of peptides in Fasted-State Simulated Intestinal Fluid (FaSSIF). Particulars: FaSSIF with 10 mg/ml pancreatin, 37° C.; for remaining at 0.25 h: FaSSIF pH 6.5 with 10 mg/ml pancreatin, t = 15 mins. Format: in vitro ADME.

Positions of bridges follow the written chain, without caps; N, C: chain ends. Non-standard residues stand in square brackets, D forms with d. Residues, ends and D or L forms follow the SMILES beside them. *: point of attachment. Malonyl(2,2-Me2,histaminyl) = CC(C)(C(=O)NCCc1cnc[nH]1)C(=O)*; Ala(1H-tetrazol-5-yl) = N[C@@H](Cc1nnn[nH]1)C(=O)O; αMePhe(2-F) = C[C@](N)(Cc1ccccc1F)C(=O)O; Nle = CCCC[C@H](N)C(=O)O; Aib = CC(C)(N)C(=O)O

T2 sequence (P43220 24-463): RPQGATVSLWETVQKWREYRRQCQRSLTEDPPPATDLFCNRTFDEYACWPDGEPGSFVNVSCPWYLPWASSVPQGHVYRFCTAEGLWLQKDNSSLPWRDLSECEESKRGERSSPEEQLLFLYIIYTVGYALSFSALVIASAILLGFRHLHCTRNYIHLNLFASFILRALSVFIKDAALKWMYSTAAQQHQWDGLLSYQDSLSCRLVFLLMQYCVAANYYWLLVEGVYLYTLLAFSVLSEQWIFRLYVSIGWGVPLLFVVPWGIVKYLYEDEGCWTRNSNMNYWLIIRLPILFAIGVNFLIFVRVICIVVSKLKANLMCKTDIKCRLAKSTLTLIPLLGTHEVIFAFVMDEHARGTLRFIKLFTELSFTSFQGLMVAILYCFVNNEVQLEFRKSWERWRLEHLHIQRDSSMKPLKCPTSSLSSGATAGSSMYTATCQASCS

As a reminder, the Emax is the maximal effect, on the per cent scale that the assay sets. By amount remaining is commonly meant what is left of the initial amount, in per cent. On to `CCCC[C@H](NC(=O)[C@H](CCC(=O)O)NC(=O)[C@H](CC(=O)O)NC(=O)[C@H](CO)NC(=O)[C@H](Cc1ccccc1)NC(=O)[C@H](CO)NC(=O)CNC(=O)[C@H](Cc1nn[nH]n1)NC(=O)C(C)(C)C(=O)NCCc1c[nH]cn1)C(=O)N[C@H](Cc1ccccc1)C(=O)N[C@H]1CCCCNC(=O)C[C@@H](C(=O)N[C@@H](CCCCN)C(=O)N[C@@H](C)C(=O)N[C@@H](C)C(=O)N[C@@H](CCCCN)C(=O)N[C@@H](CC(=O)O)C(=O)N[C@@H](Cc2ccccc2)C(=O)N[C@H](C(=O)N[C@@H](CC(N)=O)C(=O)N[C@@H](Cc2c[nH]c3ccccc23)C(=O)N[C@@H](CC(C)C)C(=O)N[C@H](C(=O)N[C@@H](CCC(N)=O)C(=O)N[C@H](C(=O)N[C@H]2CCC(=O)NCCCC[C@@H](C(N)=O)NC(=O)[C@H]([C@@H](C)O)NC(=O)[C@H]([C@@H](C)CC)NC2=O)[C@@H](C)O)[C@@H](C)CC)[C@@H](C)CC)NC(=O)[C@H](CC(=O)O)NC(=O)[C@H](CC(C)C)NC(=O)[C@H]([C@@H](C)CC)NC1=O` [Example 105] ({Malonyl(2,2-Me2,histaminyl)}-[Ala(1H-tetrazol-5-yl)]GSFSDE[Nle][dF]KILDDKAAKDFINWLIQTEITK-NH2; lactam 10-14, 28-31 (inferred); C-terminus assumed), for which, at human GLP2 receptor, the Emax worked out at 101% and the EC50 is 0.0251 nM. In addition, on human GLP1 receptor, the Emax is 97.4% and the EC50 was 0.0251 nM. Also, the amount remaining at 0.25 h in series [1] was 1.6%.
As for `CCCC[C@@H]1NC(=O)[C@H](CCC(=O)O)NC(=O)[C@@H](NC(=O)[C@H](CO)NC(=O)[C@](C)(Cc2ccccc2F)NC(=O)[C@H](CO)NC(=O)CNC(=O)[C@H](CC(=O)O)NC(=O)C(C)(C)NC(=O)[C@@H](N)Cc2c[nH]cn2)CCCCNC(=O)C[C@@H](C(=O)N[C@H](C(=O)N[C@@H](CC(C)C)C(=O)N[C@@H](CC(=O)O)C(=O)N[C@H]2CCC(=O)NCCCC[C@@H](C(=O)N[C@@H](CC(=O)O)C(=O)N[C@@H](Cc3ccccc3)C(=O)N[C@H](C(=O)N[C@@H](CC(N)=O)C(=O)N[C@@H](Cc3c[nH]c4ccccc34)C(=O)N[C@@H](CC(C)C)C(=O)N[C@H](C(=O)N[C@@H](CCC(N)=O)C(=O)N[C@H]3CCC(=O)NCCCC[C@@H](C(N)=O)NC(=O)[C@H]([C@@H](C)O)NC(=O)[C@H]([C@@H](C)CC)NC(=O)[C@H](CCCCN)NC3=O)[C@@H](C)CC)[C@@H](C)CC)NC(=O)[C@H](C)NC(=O)[C@H](C)NC(=O)[C@H](CCCCN)NC2=O)[C@@H](C)CC)NC(=O)[C@@H](Cc2ccccc2)NC1=O` [Example 18] (H-H[Aib]DGS[αMePhe(2-F)]SKE[Nle][dF]DILDEKAAKDFINWLIQEKITK-NH2; lactam 8-12, 16-20, 29-33; C-terminus assumed), on human GLP2 receptor, the maximal response (Emax) turned out to be 104% and the EC50 is 0.0158 nM. Also, at human GLP1 receptor, the Emax turned out to be 97.8% and the EC50 is 0.1 nM. The share remaining at 0.5 h in series [1] (t=30 mins, pH 6.5, 10 mg/ml pancreatin) was 17.3%.
Regarding `CCCC[C@H](NC(=O)[C@H](CCC(=O)O)NC(=O)[C@H](CC(=O)O)NC(=O)[C@H](CO)NC(=O)[C@H](Cc1ccccc1)NC(=O)[C@H](CO)NC(=O)CNC(=O)[C@H](CC(=O)O)NC(=O)C(C)(C)NC(=O)[C@@H](N)Cc1c[nH]cn1)C(=O)N[C@H]1CC(=O)NCCCC[C@@H](C(=O)N[C@@H](CC(C)C)C(=O)N[C@@H](CCCCN)C(=O)N[C@@H](C)C(=O)N[C@@H](C)C(=O)N[C@@H](CCCCN)C(=O)N[C@@H](CC(=O)O)C(=O)N[C@@H](Cc2ccccc2)C(=O)N[C@H](C(=O)N[C@@H](CC(N)=O)C(=O)N[C@@H](Cc2c[nH]c3ccccc23)C(=O)N[C@@H](CC(C)C)C(=O)N[C@H](C(=O)N[C@@H](CCC(N)=O)C(=O)N[C@H](C(=O)N[C@@H](CCCCN)C(=O)N[C@H](C(=O)N[C@H](C(=O)N[C@@H](CC(=O)O)C(N)=O)[C@@H](C)O)[C@@H](C)CC)[C@@H](C)O)[C@@H](C)CC)[C@@H](C)CC)NC(=O)[C@H](CC(C)C)NC(=O)[C@H]([C@@H](C)CC)NC(=O)[C@H]([C@@H](C)O)NC1=O` [Example 86] (H-H[Aib]DGSFSDE[Nle]DTILKLKAAKDFINWLIQTKITD-NH2; lactam 11-15; C-terminus assumed), at human GLP2 receptor, the Emax amounted to 103% and the EC50 is 0.0251 nM. Further, at human GLP1 receptor, the Emax worked out at 93.5% and the EC50 is 25.1 nM. The share remaining at 0.25 h in series [1] is 5.1%.
On the same counts, the results for `CCCC[C@H](NC(=O)[C@H](CCC(=O)O)NC(=O)[C@H](CC(=O)O)NC(=O)[C@H](CO)NC(=O)[C@H](Cc1ccccc1)NC(=O)[C@H](CO)NC(=O)CNC(=O)[C@H](Cc1nn[nH]n1)NC(=O)C(C)(C)C(=O)NCCc1c[nH]cn1)C(=O)N[C@H](Cc1ccccc1)C(=O)N[C@H]1CCCCNC(=O)C[C@@H](C(=O)N[C@@H](CCCCN)C(=O)N[C@@H](C)C(=O)N[C@@H](C)C(=O)NC(C)(C)C(=O)N[C@@H](CC(=O)O)C(=O)N[C@@H](Cc2ccccc2)C(=O)N[C@H](C(=O)N[C@@H](CC(N)=O)C(=O)N[C@@H](Cc2c[nH]c3ccccc23)C(=O)N[C@@H](CC(C)C)C(=O)N[C@H](C(=O)N[C@@H](CCC(N)=O)C(=O)N[C@H](C(=O)N[C@H]2CCC(=O)NCCCC[C@@H](C(N)=O)NC(=O)[C@H]([C@@H](C)O)NC(=O)[C@H]([C@@H](C)CC)NC2=O)[C@@H](C)O)[C@@H](C)CC)[C@@H](C)CC)NC(=O)[C@H](CC(=O)O)NC(=O)[C@H](CC(C)C)NC(=O)[C@H]([C@@H](C)CC)NC1=O` [Example 109] ({Malonyl(2,2-Me2,histaminyl)}-[Ala(1H-tetrazol-5-yl)]GSFSDE[Nle][dF]KILDDKAA[Aib]DFINWLIQTEITK-NH2; lactam 10-14, 28-31) are 102%, 0.00794 nM, 97%, 0.0251 nM and 4.6%.
For `CCCC[C@H](NC(=O)[C@H](CCC(=O)O)NC(=O)[C@H](CC(=O)O)NC(=O)[C@H](CO)NC(=O)[C@H](Cc1ccccc1)NC(=O)[C@H](CO)NC(=O)CNC(=O)[C@H](Cc1nn[nH]n1)NC(=O)C(C)(C)C(=O)NCCc1c[nH]cn1)C(=O)N[C@H](Cc1ccccc1)C(=O)N[C@H](C(=O)N[C@H](C(=O)N[C@@H](CC(C)C)C(=O)N[C@@H](CC(=O)O)C(=O)N[C@H]1CCC(=O)NCCCC[C@@H](C(=O)N[C@@H](CC(=O)O)C(=O)N[C@@H](Cc2ccccc2)C(=O)N[C@H](C(=O)N[C@@H](CC(N)=O)C(=O)N[C@@H](Cc2c[nH]c3ccccc23)C(=O)N[C@@H](CC(C)C)C(=O)N[C@H](C(=O)N[C@@H](CCC(N)=O)C(=O)N[C@H](C(=O)N[C@H]2CCC(=O)NCCCC[C@@H](C(N)=O)NC(=O)[C@H]([C@@H](C)O)NC(=O)[C@H]([C@@H](C)CC)NC2=O)[C@@H](C)O)[C@@H](C)CC)[C@@H](C)CC)NC(=O)[C@H](C)NC(=O)[C@H](C)NC(=O)[C@H](CCCCN)NC1=O)[C@@H](C)CC)[C@@H](C)O` [Example 107] ({Malonyl(2,2-Me2,histaminyl)}-[Ala(1H-tetrazol-5-yl)]GSFSDE[Nle][dF]TILDEKAAKDFINWLIQTEITK-NH2; lactam 14-18, 28-31), in that order: 101%, 0.02 nM, 96.9%, 0.02 nM and 7.4%.
